Test results reported in ChEMBL document CHEMBL1133140, “Computer-aided design, synthesis and biological assay of p-methylsulfonamido phenylethylamine analogues” (2000).
Activity calls are given as the source filed them. The calls are words filed in the database; no cut-off is given here.

Columns and labels:
[1] = Tested for its effective concentration for delaying functional refractory period 10 ms in animal atrium; design: species or system Cardiac atrium
[2] = Negative log of concentration (-logC)for delaying functional refractory period 10 ms in animal atrium; design: species or system Cardiac atrium
[3] = The compound was tested for its maximal percent change of delaying functional refractory period in uM; no effect
[4] = The compound was tested for its maximal percent change of force of constriction in uM; no effect; format: functional
[5] = Tested for its maximal percent change of heart rate in uM; format: functional
[6] = Tested for its maximal percent change of force of constriction in uM; format: functional
[7] = Tested for its maximal percent change of delaying functional refractory period in uM

Row | Compound | Effective concentration [1] | EA [2] | Max delta FRP [3] | Max delta FC [4] | Max delta HR [5] | Max delta FC [6] | Max delta FRP [7]
1 | COc1ccc(CN(CCc2ccc(N(S(C)(=O)=O)S(C)(=O)=O)cc2)Cc2ccccc2)cc1 | 0.79 µM | 6.1 | – | – | – | – | –
2 | CS(=O)(=O)Nc1ccc(CCN(CCOc2ccc(NS(C)(=O)=O)cc2)Cc2ccc(Cl)cc2)cc1 | 0.037 µM | 7.44 | – | – | – | – | –
3 | CC(=O)N(CCOc1ccccc1)CCc1ccc(N(S(C)(=O)=O)S(C)(=O)=O)cc1 | – | – | inactive | inactive | -20.51% | – | –
4 | CS(=O)(=O)N(c1ccc(CCN(Cc2ccccc2)Cc2ccc3c(c2)OCO3)cc1)S(C)(=O)=O | 0.38 µM | 6.41 | – | – | – | – | –
5 | CS(=O)(=O)Nc1ccc(CCN(Cc2ccccc2)Cc2ccc(Cl)cc2)cc1 | 1.05 µM | 5.98 | – | – | – | – | –
6 | CN(CCc1ccc(NS(C)(=O)=O)cc1)Cc1ccc2c(c1)OCO2 | 0.89 µM | 6.15 | – | – | – | – | –
7 | CS(=O)(=O)N(c1ccc(CCN(CCOc2ccccc2)Cc2ccccc2)cc1)S(C)(=O)=O | – | – | inactive | – | -17.86% | 25% | –
8 | COc1ccccc1CN(CCc1ccc(NS(C)(=O)=O)cc1)Cc1ccccc1 | 0.141 µM | 6.85 | – | – | – | – | –
9 | CC(=O)N(CCOc1ccc(NS(C)(=O)=O)cc1)CCc1ccc(NS(C)(=O)=O)cc1 | 0.021 µM | 7.67 | – | – | – | – | –
10 | CN(CCOc1ccccc1)CCc1ccc(N(S(C)(=O)=O)S(C)(=O)=O)cc1 | – | – | – | inactive | -20.69% | – | 12%
11 | C=CCN(CCOc1ccccc1)CCc1ccc(N(S(C)(=O)=O)S(C)(=O)=O)cc1 | – | – | inactive | – | -8.33% | 16.7% | –
12 | CN(CCOc1ccc(NS(C)(=O)=O)cc1)CCc1ccc(NS(C)(=O)=O)cc1 [DOFETILIDE] | 0.012 µM | 7.92 | – | – | -30.03% | 17.1% | 24%
13 | Cc1ccc(CN(C)CCc2ccc(N(S(C)(=O)=O)S(C)(=O)=O)cc2)cc1 | 0.953 µM | 6.02 | – | – | – | – | –
14 | C=CCN(CCOc1ccccc1)CCc1ccc(NS(C)(=O)=O)cc1 | – | – | – | – | -15.18% | 16.7% | 9.77%
15 | CC(=O)N(CCOc1ccccc1)CCc1ccc(NS(C)(=O)=O)cc1 | – | – | – | – | -46.17% | -37.9% | 58.4%
16 | Cc1ccc(CN(CCc2ccc(N(S(C)(=O)=O)S(C)(=O)=O)cc2)Cc2ccccc2)cc1 | 0.62 µM | 6.21 | – | – | – | – | –
17 | CS(=O)(=O)Nc1ccc(CCN(Cc2ccccc2)Cc2ccccc2)cc1 | 0.27 µM | 6.57 | – | – | – | – | –
18 | CN(CCOc1ccccc1)CCc1ccc(NS(C)(=O)=O)cc1 | – | – | – | – | -28.51% | 20.2% | 20.2%
19 | CN(CCc1ccc(NS(C)(=O)=O)cc1)Cc1ccccc1 | 0.372 µM | 6.34 | – | – | – | – | –
20 | CN(CCc1ccc(NS(C)(=O)=O)cc1)Cc1ccc(Cl)cc1 | 2.239 µM | 5.65 | – | – | – | – | –
21 | COc1ccc(CN(C)CCc2ccc(N(S(C)(=O)=O)S(C)(=O)=O)cc2)cc1 | 1.17 µM | 5.93 | – | – | – | – | –
22 | CN(CCc1ccc(NS(C)(=O)=O)cc1)C1CCCCC1 | 4.789 µM | 5.32 | – | – | – | – | –
23 | CS(=O)(=O)Nc1ccc(CCNCCOc2ccc(NS(C)(=O)=O)cc2)cc1 [N-DESMETHYLDOFETILIDE] | 0.023 µM | 7.63 | – | – | – | – | –
24 | CS(=O)(=O)Nc1ccc(CCN(CCOc2ccc(NS(C)(=O)=O)cc2)Cc2ccccc2)cc1 | 0.016 µM | 7.8 | – | – | – | – | –
25 | CS(=O)(=O)Nc1ccc(CCN(CCOc2ccccc2)Cc2ccccc2)cc1 | – | – | inactive | – | -31.8% | 25% | –
26 | CS(=O)(=O)Nc1ccc(CCN(CCOc2ccccc2)C(=O)c2ccccc2)cc1 | – | – | – | – | -20% | 33.3% | 5.33%
